The text below walks through data of patent US8008329B2 (Dong Wha Pharmaceutical Co., Ltd., priority 2008, dated 2011).

Each structure is given as a SMILES string. Values joined by “and” are separate entries in the source; they are usually repeats but may differ in a detail not shown here. Equal entries are not always repeated. Marks after values point to notes of the source that are not given here.

For assay [1], the system named is osteoclast differentiation. The assay is described as follows: Osteoclast differentiation in co-culture of mouse bone marrow cells and calvarial osteoblasts, TRAP staining (Examples 1-7). As to conditions: day 7. Type of assay: cell-based.
Assay [2] concerns osteoclast differentiation. Nature of the assay: Osteoclast differentiation in co-culture of mouse bone marrow cells and ST2 cells, TRAP staining (Examples 8-9). Type of assay: cell-based. To be noted: for % number of osteoclast (vs. solvent control group): 0.1 μM each, day 7; for activity at 0.1 µM: Mus musculus, Osteoclast, 168 h, Individual treatment (compounds), day 7, read-out: % number of osteoclast (vs. solvent control group). The essentials: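 Bone marrow cells from 6-8-week male ddY mice were co-cultured with ST2 stromal cells under 10^−8 M vitamin D3 and 10^−8 M dexamethasone, with compounds at 0.1 μM final (0.1% DMSO control), refreshed on days 3 and 5. On day 7, TRAP-positive osteoclasts with ≥6 nuclei were counted and expressed as % of solvent control (n=4).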

The mark [3] stands for this setting: Combination treatment (alendronic acid + compounds).
Setting [4] is: Combination treatment (risedronic acid + compounds).

Regarding `CCCCCN(C)CCC(O)(P(=O)(O)O)P(=O)(O)O` [ibandronic acid, reference compound], in assay [1] (Mus musculus, Osteoclast, 168 h, individual treatment of ibandronic acid (0.1 μM), read-out: % number of osteoclast (vs. solvent control group)), the activity at 0.1 µM was 77%. Besides, the “% number of osteoclast (vs. solvent control group)” value (shortened to “% number of osteoclast”) in assay [1] (individual treatment of ibandronic acid (0.1 μM)) is 77 ± 8.2 %.
For the compound `O=P(O)(O)C(O)(Cn1ccnc1)P(=O)(O)O` [zoledronic acid, reference compound], the activity at 0.01 µM in assay [1] (Mus musculus, Osteoclast, 168 h, individual treatment of zoledronic acid (0.01 μM), read-out: % number of osteoclast (vs. solvent control group)) was determined as 84%. The “% number of osteoclast” value in assay [1] (individual treatment of zoledronic acid (0.01 μM)) is on record as 84 ± 4.1 %.
On to `Cc1nc(-c2ccc(OCCCCCOc3ccc(C(=N)NO)c(F)c3)cc2)c(C(C)C)s1` [Compound 187, N-hydroxy-2-fluoro-4-{5-[4-(5-isopropyl-2-methyl-1,3-thiazol-4-yl)-phenoxy]-pentyloxy}-benzamidine], for which the activity at 0.1 µM in assay [1] (Mus musculus, Osteoclast, 168 h, individual treatment of Compound (0.1 μM), read-out: % number of osteoclast (vs. solvent control group)) is 67%. The “% number of osteoclast” value was 32% and 32 ± 8.1*^#@ % in assay [1] (combination treatment of alendronic acid (0.2 μM) with compound (0.1 μM)); 60 ± 15.2*^#@ % in assay [1] (combination treatment of clodronic acid (1 μM) with compound (0.1 μM)); 41% and 41 ± 7.5*^#@ % in assay [1] (combination treatment of etidronic acid (2 μM) with compound (0.1 μM)); 42% and 42 ± 8.1*^#@ % in assay [1] (combination treatment of ibandronic acid (0.1 μM) with compound (0.1 μM)); 47% and 47 ± 10.5*^#@ % in assay [1] (combination treatment of pamidronic acid (0.1 μM) with compound (0.1 μM)); 40% and 40 ± 6.6*^#@ % in assay [1] (combination treatment of risedronic acid (0.1 μM) with compound (0.1 μM)). For the same compound, the “% number of osteoclast” value is 43% and 43 ± 4.5*^#@ % in assay [1] (combination treatment of zoledronic acid (0.01 μM) with compound (0.1 μM)); 67% and 67 ± 7.4 % in assay [1] (individual treatment of Compound (0.1 μM)).
Consider `CN(CCN1CCOCC1)c1nc(-c2ccc(OCCCCCOc3ccc(C(=N)NO)cc3)cc2)c(CN2CCSCC2)s1` [Compound 314, N-hydroxy-4-[5-(4-{2-[methyl-(2-morpholin-4-yl-ethyl)-amino]-5-thiomorpholin-4-ylmethyl-thiazol-4-yl}-phenoxy)-pentyloxy]-benzamidine], for which the “% number of osteoclast” value in assay [2] (setting [3]) is 15 ± 1.7^ab %; in assay [2] (setting [4]), 9 ± 3.2^ac %. In assay [2], the activity at 0.1 µM is 43 ± 7%.
On to `CC(C)c1nc(-c2ccc(OCCCCCOc3ccc(C(=N)NO)cc3)cc2)c(CCN2CCN(C)CC2)s1` [Compound 241, N-hydroxy-4-[5-(4-{2-isopropyl-5-[2-(4-methyl-piperazin-1-yl)-ethyl]-thiazol-4-yl}-phenoxy)-pentyloxy]-benzamidine], for which the results for the “% number of osteoclast” value in assay [2] (setting [3]) and in assay [2] (setting [4]) were 24 ± 4.6^ab % and 12 ± 1.4^ac %, respectively. Moreover, in assay [2], the activity at 0.1 µM amounted to 61 ± 6.8%.
On to `N=C(NO)c1ccc(OCCCCCOc2ccc(-c3nc(-c4cccnc4)sc3CCCl)cc2)cc1` [Compound 80, N-hydroxy-4-{5-[4-(5-(2-chloroethyl)-2-(pyridin-3-yl)-1,3-thiazol-4-yl)phenoxy]pentyloxy}-benzamidine], for which the “% number of osteoclast” value in assay [2] (setting [3]) is 42 ± 9.9^b %; in assay [2] (setting [4]), 38 ± 3.7^ac %. Besides, the activity at 0.1 µM in assay [2] came to 65 ± 1.4%.
Consider `CC(C)c1nc(-c2ccc(OCCCCCOc3ccc(C(=N)NO)cc3)cc2)c(CCn2ccnc2)s1` [Compound 242, N-hydroxy-4-(5-{4-[5-(2-imidazol-1-yl-ethyl)-2-isopropyl-thiazol-4-yl]-phenoxy}-pentyloxy)-benzamidine], for which the “% number of osteoclast” value was 18 ± 3.5^ab % in assay [2] (setting [3]) and 13 ± 2.8^ac % in assay [2] (setting [4]). The activity at 0.1 µM in assay [2] is 58 ± 3.4%.
On to `Cc1nc(-c2ccc(OCCCCCOc3ccc(C(=N)NO)cc3)cc2)c(C(=O)NCCCn2ccnc2)s1` [Compound 284, N-hydroxy-4-{5-[4-(5-{3-imidazol-1-yl-propylcarbamoyl}-2-methyl-thiazol-4-yl)-phenoxy]-pentyloxy}-benzamidine], for which the results for the “% number of osteoclast” value in assay [2] (setting [3]) and in assay [2] (setting [4]) were 36 ± 5.0^ab % and 19 ± 5.8^ac %, respectively. For the same compound, the activity at 0.1 µM in assay [2] was determined as 73 ± 7.7%.
Consider `Cc1nc(-c2ccc(OCCCCCOc3ccc(C(=N)NO)cc3)cc2)c(CCNCC(C)C)s1` [Compound 235, N-hydroxy-4-(5-{4-[5-(2-isobutylamino-ethyl)-2-methyl-thiazol-4-yl]-phenoxy}-pentyloxy)-benzamidine], for which the “% number of osteoclast” value in assay [2] (setting [3]) is given as 33 ± 1.8%; in assay [2] (setting [4]), 25 ± 4.4^c %. The activity at 0.1 µM in assay [2] was determined as 38 ± 7.6%.
With `Cc1nc(-c2ccc(OCCCCCOc3ccc(C(=N)NO)cc3)cc2)c(N(C)C)s1` [Compound 326, N-hydroxy-4-{5-[4-(5-dimethylamino-2-methyl-thiazol-4-yl)-phenoxy]-pentyloxy}-benzamidine], the entries for the “% number of osteoclast” value in assay [2] (setting [3]) and in assay [2] (setting [4]) were 34 ± 2.7^b % and 15 ± 6.0^ac %, respectively. Besides, in assay [2], the activity at 0.1 µM was determined as 46 ± 11%.
As for `CN(CCN1CCOCC1)c1nc(-c2ccc(OCCCCCOc3ccc(C(=N)NO)cc3)cc2)c(CC2CCCC2)s1` [Compound 148, N-hydroxy-4-[5-(4-{5-cyclopentylmethyl-2-[methyl-(2-morpholinoethyl)amino]-1,3-thiazol-4-yl}phenoxy)pentyloxy]-benzamidine], the figures for the “% number of osteoclast” value in assay [2] (setting [3]) and in assay [2] (setting [4]) were 33 ± 8.3^ab % and 19 ± 2.4^a %, respectively. Further, the activity at 0.1 µM in assay [2] stood at 65 ± 4.3%.
On to `CCc1sc(NS(=O)(=O)CC)nc1-c1ccc(OCCCCCOc2ccc(C(=N)NO)cc2)cc1` [Compound 95, N-hydroxy-4-{5-[4-(2-ethanesulphonylamino-5-ethyl-1,3-thiazol-4-yl)phenoxy]pentyloxy}-benzamidine], for which the “% number of osteoclast” value in assay [2] (setting [3]) is 37 ± 10.3^ab %; in assay [2] (setting [4]), 33 ± 6.8^ac %. The activity at 0.1 µM in assay [2] is 90 ± 5.4%.
In the case of `Cc1nc(-c2ccc(OCCCCCOc3ccc(C(=N)NO)cc3)cc2)c(C2CCCC2)s1` [Compound 43, N-hydroxy-4-{5-[4-(5-cyclopentyl-2-methyl-1,3-thiazol-4-yl)phenoxy]pentyloxy}-benzamidine], the “% number of osteoclast” value in assay [2] (setting [3]) is given as 32 ± 6.6^ab %; in assay [2] (setting [4]) it was 40 ± 7.8^c %. Besides, the activity at 0.1 µM in assay [2] stood at 74 ± 14.6%.
The like results for `Cc1sc(N2CCOCC2)nc1-c1ccc(OCCCCCOc2ccc(C(=N)NO)cc2)cc1` [Compound 165, N-hydroxy-4-{5-[4-(5-methyl-2-morpholino-1,3-thiazol-4-yl)phenoxy]pentyloxy}-benzamidine] were, in that order, 29 ± 7.5^ab %, 30 ± 3.1^ac % and 75 ± 3.8%.
In the case of `CCCCCc1nc(-c2ccc(OCCCCCOc3ccc(C(=N)NO)cc3)cc2)c(C)s1` [Compound 15, N-hydroxy-4-{5-[4-(5-methyl-2-pentyl-1,3-thiazol-4-yl)phenoxy]pentyloxy}-benzamidine], the “% number of osteoclast” value in assay [2] (setting [3]) is given as 43 ± 11.4%; in assay [2] (setting [4]), 45 ± 9.2^ac %. Moreover, the activity at 0.1 µM in assay [2] is 69 ± 5.5%.
Consider `N=C(NO)c1ccc(OCCCCCOc2ccc(-c3nc(N4CCOCC4)sc3N3CCSCC3)cc2)cc1` [Compound 291, N-hydroxy-4-{5-[4-(2-morpholin-4-yl-5-thiomorpholin-4-yl-thiazol-4-yl)-phenoxy]-pentyloxy}-benzamidine], for which the “% number of osteoclast” value in assay [2] (setting [3]) is reported as 20 ± 3.8^ab %; in assay [2] (setting [4]) it was 12 ± 3.5^ac %. Further, the activity at 0.1 µM in assay [2] amounted to 44 ± 4.9%.
As for `N=C(NO)c1ccc(OCCCCCOc2ccc(-c3nc(NC(=O)c4ccncc4)sc3CC3CCCC3)cc2)cc1` [Compound 112, N-hydroxy-4-{5-[4-(5-cyclopentylmethyl-2-(4-pyridylcarbonyl)amino-1,3-thiazol-4-yl)phenoxy]pentyloxy}-benzamidine], the “% number of osteoclast” value in assay [2] (setting [3]) is given as 35 ± 7.6^ab %; in assay [2] (setting [4]), 31 ± 8.0^ac %. Also, the activity at 0.1 µM in assay [2] stood at 77 ± 9.8%.
For `CCc1sc(NC)nc1-c1ccc(OCCCCCOc2ccc(C(=N)NO)cc2)cc1` [Compound 96, N-hydroxy-4-{5-[4-(5-ethyl-2-methylamino-1,3-thiazol-4-yl)phenoxy]pentyloxy}-benzamidine], the results for the “% number of osteoclast” value in assay [2] (setting [3]) and in assay [2] (setting [4]) were 55 ± 10.0% and 34 ± 7.1^ac %, respectively. In addition, the activity at 0.1 µM in assay [2] was 74 ± 8.1%.
The matching figures for `CCCCc1sc(C(C)(C)C)nc1-c1ccc(OCCCCCOc2ccc(C(=N)NO)cc2)cc1` [Compound 37, N-hydroxy-4-{5-[4-(5-butyl-2-t-butyl-1,3-thiazol-4-yl)phenoxy]pentyloxy}-benzamidine]: 30 ± 9.9^b %, 36 ± 14.4^c % and 68 ± 18.9%.
With `CC(C)c1sc(N(C)C)nc1-c1ccc(OCCCCCOc2ccc(C(=N)NO)cc2)cc1` [Compound 161, N-hydroxy-4-{5-[4-(5-isopropyl-2-dimethylamino-1,3-thiazol-4-yl)phenoxy]pentyloxy}-benzamidine], the figures for the “% number of osteoclast” value in assay [2] (setting [3]) and in assay [2] (setting [4]) were 56 ± 4.3^ab % and 47 ± 14.0^a %, respectively. In addition, in assay [2], the activity at 0.1 µM is 79 ± 5.1%.
